Source: PubChem BioAssay AID540269 (Sanford-Burnham Center for Chemical Genomics, 2011)
Calls of active or inactive are those of the source. No rule for the calls is given here.

These compounds were tested against glucose-6-phosphate dehydrogenase-6-phosphogluconolactonase (Plasmodium falciparum 3D7) (assay: PfG6PD enzyme inhibitors, kinetic NADPH readout, dose response, orthogonal assay, biochemical, kinetic NADPH detection (AID 540269)). Conditions: purified PfG6PD-6PGL.

| Structure (SMILES) | IC50 |
| --- | --- |
| O=c1c2ccccc2sn1-c1ccc(Cl)cc1 | 17.1 µM |
| Cc1ccc2nc3sc(C(=O)N4CCOCC4)c(N)c3cc2c1 | 37 µM |
| O=C(Nc1ccc(N2CCCC2)cc1)c1cccc(-c2cc3ccccc3oc2=O)c1 | > 80 µM (inactive) |
| O=C(Nc1nnc(S(=O)(=O)N2CCOCC2)s1)c1cccc(Br)c1 | 60.2 µM |
| O=C(N/N=C/c1cccc([N+](=O)[O-])c1)C(=O)N1CCCCCC1 | > 80 µM (inactive) |
| CC(=O)Nc1ccc2c(=O)n(-c3ccccc3)sc2c1 | 15.6 µM |
| O=c1[nH]sc2cc(F)ccc12 | 56.2 µM |
| COc1cc(Sc2ccc(C)cc2)c(OC)cc1N | > 80 µM (inactive) |
| COc1cccc(-c2c(C(=O)N/N=C/c3ccc(C)s3)nnn2-c2nonc2N)c1 | 53.5 µM |
| Cc1ccc(N2CC(C(=O)OCC(=O)c3ccc([N+](=O)[O-])cc3)CC2=O)cc1 (stereo not drawn) | > 80 µM (inactive) |
| COc1ccc(/C=C/c2nc3ccccc3n2Cc2ccc(OC)c(OC)c2)cc1 | 51.1 µM |
| Cc1ccc(S(=O)(=O)NNc2ccccc2)cc1 | 54.1 µM |
| C/C(Cn1nnc([N+](=O)[O-])n1)=N\NC(=O)c1ccccc1O | 46.3 µM |
| COc1cc(N=c2ssnc2Cl)c(OC)cc1Cl | 36.8 µM |
| O=C(Nc1nnc(S(=O)(=O)N2CCOCC2)s1)c1ccc(F)cc1 | 56.9 µM |
| Cc1ccc(-c2csc(NC(=O)c3ccc(Br)cc3)c2C(=O)O)cc1 | 29.7 µM |
| COc1ccccc1N1CSC2=C(C#N)C(c3ccc(SC)cc3)CC(=O)N2C1 (stereo not drawn) | 62.6 µM |
| O=C(Nc1ccccn1)c1sc2cc([N+](=O)[O-])ccc2c1Cl | > 80 µM (inactive) |
| COc1cccc(/C=N/NC(=O)c2c(C)nc3ccc(Br)cn23)c1 | 52.3 µM |
| O=S(=O)(Nc1c(O)ccc2ccccc12)c1ccccc1 | 9.3 µM |
| O=c1c2ccccc2[se]n1-c1ccccc1 | 22.1 µM |
| CN1CCc2cc(O)cc3c2[C@H]1Cc1ccc(O)c(O)c1-3 | > 80 µM (inactive) |

| Structure (SMILES) | IC50 |
| --- | --- |
| CCCCOc1ccc(Cc2n[nH]c(=S)n2N)cc1 | > 80 µM (inactive) |
| Cc1ccc(-n2sc3ccccc3c2=O)cc1 | 19.1 µM |
| COc1cccc(C2(c3cccc(OC)c3)CC2C(=O)Nc2ccc(F)cc2)c1 (stereo not drawn) | > 80 µM (inactive) |
| Cc1cc(=O)[nH]c(N/N=C/c2c(C)nn(-c3ccccc3)c2Cl)n1 | 17.1 µM |
| CN(C)c1ccc(C=c2c3cc(O)ccc3n3c2cc(-c2ccccc2)[n+]3C)cc1 | > 80 µM (inactive) |
| CCOc1ccccc1NS(=O)(=O)c1c(C)noc1C | > 80 µM (inactive) |
| Cn1sc2ccccc2c1=O | 39.5 µM |
| c1cncc(CNc2ccc3c(c2)OCO3)c1 | > 80 µM (inactive) |
| COc1cccc(CNc2ccc3[nH]c(=O)[nH]c3c2)c1OCc1ccc(F)cc1 | > 80 µM (inactive) |
| CCOc1ccc(N(CC(=O)N/N=C/c2cc([N+](=O)[O-])ccc2Cl)S(C)(=O)=O)cc1 | > 80 µM (inactive) |
| Cc1c(C(=O)N(Cc2ccccc2Cl)C2CCS(=O)(=O)C2)oc2ccccc12 (stereo not drawn) | > 80 µM (inactive) |
| Cc1cccc(OCC(=O)NCC(=O)N/N=C/c2ccccc2)c1 | > 80 µM (inactive) |
| O=S(=O)(Nc1ccccc1F)c1cccc(NC(=S)NCCN2CCOCC2)c1 | 50.2 µM |
| O=C(Nc1nc(-c2ccncc2)cs1)C1COc2ccccc2O1 (stereo not drawn) | 22.4 µM |
| Cc1cc(C)c2sc(NC(=O)C3=COCCO3)nc2c1 | 30.2 µM |
| Clc1ccc2nc(-c3ccc4c(c3)OCO4)cn2c1 | 40.7 µM |
| O=C(CCSCCC(=O)NN=Cc1ccccc1)NN=Cc1ccccc1 | > 80 µM (inactive) |
| N#CC1=C(N)Oc2c(O)cc3ccccc3c2C1c1ccsc1 (stereo not drawn) | 55.6 µM |
| COc1cc(N)c2ncccc2c1OC | > 80 µM (inactive) |
| O=c1c2cc([N+](=O)[O-])ccc2sn1-c1ccccc1 | 15.9 µM |
| CCc1ccc(OCC(=O)N/N=C/c2cc([N+](=O)[O-])ccc2N2CCOCC2)cc1 | > 80 µM (inactive) |
| COc1ccc(S(=O)(=O)/N=C2\C=C(Nc3ccc(O)cc3)C(=O)c3ccccc32)cc1 | > 80 µM (inactive) |

| Structure (SMILES) | IC50 |
| --- | --- |
| COc1cc(-c2cc(=O)c3c(O)c(OC)c(OC)c(O)c3o2)ccc1O | 40.3 µM |
| Cc1ccc(/C=C2\C(=O)NC(=S)N(c3ccccc3F)C2=O)s1 | > 80 µM (inactive) |
| O=c1[nH]c2ccc(NCc3ccccc3OCc3ccc(Cl)cc3)cc2[nH]1 | > 80 µM (inactive) |
| Cc1nnc(N/N=C/c2ccc(-c3ccccc3F)o2)n1N | 32.1 µM |
| Cc1cc(C)c2c(=O)n(CC(=O)N3CCC(N4CCCCC4)CC3)sc2n1 | 48.4 µM |
| Cc1ccc(NC(=O)c2ccc(Cl)c(N3C(=O)C=CC3=O)c2)cc1 | 28.2 µM |
| CN1CCN(C(=S)c2ccc(Br)cc2)CC1 | > 80 µM (inactive) |
| CC(C)Sc1nnc(NC(=O)c2ccc3c(c2)OCO3)s1 | 29.5 µM |
| CC1N(C)c2cccc3cccc(c23)N1C | 19.7 µM |
| O=C(CSc1nc2ccc(Cl)cc2[nH]1)NC1CCCc2ccccc21 (stereo not drawn) | > 80 µM (inactive) |
| COc1cc(NCCCn2ccc(NC(=O)OCc3ccccc3)nc2=O)cc(OC)c1OC | > 80 µM (inactive) |
| CN(C)c1ccc(/C=C/c2ccc3c4ccccc4ccc3[n+]2-c2ccccc2)cc1 | 44.3 µM |
| CCC(=O)OCCNc1cc(Sc2nc3ccccc3s2)c2nonc2c1[N+](=O)[O-] | > 80 µM (inactive) |
| COc1cc(OC)c(C2CC(=O)N3CN(c4ccccc4)CSC3=C2C#N)cc1OC (stereo not drawn) | > 80 µM (inactive) |
| Nc1[nH]c(=O)[nH]c(=O)c1N=Cc1ccccc1 | 20.6 µM |
| Cc1cc(C)c2c(=O)n(CC(=O)NC3CCCC3)sc2n1 | > 80 µM (inactive) |
| COc1ccc(OC)c2c1C(=O)C(Cl)=C(Cl)C2=O | 20.3 µM |
| O=C(O)C(Cc1ccccc1)N1C(=O)C=CC1=O (stereo not drawn) | 36.2 µM |
| OCCN1CCN(C(=S)c2ccc(Cl)c(Cl)c2)CC1 | > 80 µM (inactive) |
| CCOc1ccc(NC(=O)Cn2sc3nc(C)cc(C)c3c2=O)cc1 | 37.5 µM |
| Cc1cc(C)c(NC(=S)NCC2CCN(C(C)c3ccccc3)C2)c(C)c1 (stereo not drawn) | > 80 µM (inactive) |
| CSc1nnc(NC(=O)c2ccc3c(c2)OCO3)s1 | 27.1 µM |

| Structure (SMILES) | IC50 |
| --- | --- |
| COC(=O)CCC(=O)OC1(C)C(=O)C2=CN(c3ccccc3)C(c3ccc(OC)cc3)=CC2=C(Br)C1=O (stereo not drawn) | > 80 µM (inactive) |
| CN(C)c1ccc(C=c2c3ccccc3n3c2c2ccccc2[n+]3C)cc1 | 32.8 µM |
| Nc1ccc(S(=O)(=O)c2cc(O)c3ccccc3c2O)cc1 | > 80 µM (inactive) |
| Cc1ccc(S(=O)(=O)/N=C2/C=C(C3C(=O)CC(C)(C)CC3=O)C(=O)c3ccccc32)cc1 | > 80 µM (inactive) |
| C[C@H](NC(N)=O)C(=O)Nc1ccc(N2CCOCC2)c(S(=O)(=O)Nc2ccc(Cl)cc2)c1 | > 80 µM (inactive) |
| CC1(C)Nc2ccc(O)cc2-c2c1ssc2=S | > 80 µM (inactive) |
| COc1cccc(C=Nc2cc(C(C)C)c(O)cc2C)c1O | > 80 µM (inactive) |
| Cn1c(=O)c2[nH]c(-c3ccccc3)c(O)c2n(C)c1=O | > 80 µM (inactive) |
| O=C(O)c1ccccc1NS(=O)(=O)c1cccc(-n2sc3ccccc3c2=O)c1 | 15.3 µM |
| Cc1ccc(Cl)cc1NC1=C/C(=N\S(=O)(=O)c2cccs2)c2ccccc2C1=O | > 80 µM (inactive) |
| O=C(COc1ccccc1F)OCC(=O)c1ccc([N+](=O)[O-])cc1 | > 80 µM (inactive) |
| CCOC(=O)CSc1nnc(NC(=O)c2cccc([N+](=O)[O-])c2)s1 | > 80 µM (inactive) |
| Cc1cc(C)nc(SSc2nc(C)cc(C)n2)n1 | 68 µM |
| NCCNc1ccc(C(=O)N2c3ccccc3Sc3ccccc32)cc1[N+](=O)[O-] | 23.5 µM |
| CCOc1ccccc1C=NNC(=O)CCCCC(=O)NN=Cc1ccccc1OCC | > 80 µM (inactive) |
| O=C1Nc2cc(C(=O)NCCCN3CCCC3)ccc2S/C1=C/c1cccc(Cl)c1 | 34.2 µM |
| CCc1ccc(S(=O)(=O)Nc2cc(SCC(=O)O)c(O)c3ccccc23)cc1 | 44.6 µM |
| CCCNC(=O)Cn1sc2nc(C)cc(C)c2c1=O | 51.1 µM |
| CC(C)Cn1c([N+](=O)[O-])nc2c1c(=O)[nH]c(=O)n2C | > 80 µM (inactive) |
| CCN(CC)C(=S)SSC(=S)N(CC)CC | > 80 µM (inactive) |
| COc1cc(CNc2ccc(N3CCCC3)cc2)cc(Cl)c1OC | > 80 µM (inactive) |
| COc1ccc(-n2sc3ccccc3c2=O)cc1 | 14.7 µM |

| Structure (SMILES) | IC50 |
| --- | --- |
| COc1cc(SSc2cc(OC)cc([N+](=O)[O-])c2N)c(N)c([N+](=O)[O-])c1 | 44.6 µM |
| O=C(COc1cccc2ccccc12)Nc1ccc(Cl)cc1C(=O)O | 33.7 µM |
| O=C(CNC(=O)c1ccccc1)NCC(=O)OCC(=O)c1ccc([N+](=O)[O-])cc1 | 67.1 µM |
| Cc1ccc(NC(=O)c2cc(N3C(=O)C=CC3=O)ccc2N2CCOCC2)cc1Cl | > 80 µM (inactive) |
| CC(NC1=CC(=O)c2cccnc2C1=O)C(O)c1ccccc1 (stereo not drawn) | 45.1 µM |
| CC(C)Nc1ccc(Nc2ccccc2)cc1 | > 80 µM (inactive) |
| Cc1cc(N=NC(=O)c2ccccc2O)c2ccccc2c1O | > 80 µM (inactive) |
| O=C(Nc1nnc(S(=O)(=O)N2CCCC2)s1)c1cccc([N+](=O)[O-])c1 | > 80 µM (inactive) |
| Cc1ccccc1-n1c(-c2ccc3ccccc3n2)n[nH]c1=S | 51.3 µM |
| Nn1c(SCC(=O)Nc2cccnc2Cl)nnc1-c1ccccc1 | > 80 µM (inactive) |
| CN1C(=O)CSc2ccc(NC(=O)N3CCc4ccccc43)cc21 | > 80 µM (inactive) |
| CCSc1nc2cc(S(=O)(=O)N3CCOCC3)ccc2o1 | > 80 µM (inactive) |
| O=C(Cn1sc2ccccc2c1=O)Nc1ccc(Br)cc1 | 17 µM |
| O=C(Nc1ccc(N2CCN(C(=O)c3ccco3)CC2)c(Cl)c1)c1cc2ccccc2o1 | 53.8 µM |
| O=C(CCc1ccc(S(=O)(=O)N2CCOCC2)cc1)N/N=C/c1ccc(O)c(O)c1O | 36.5 µM |
| COc1cccc(/C=N/NC(=O)CSc2cccc3cccnc23)c1 | 21.7 µM |
| O=S(=O)(Nc1ccc(Cl)cc1)c1ccc(N2CCOCC2)c(NC(=S)NCCN2CCOCC2)c1 | > 80 µM (inactive) |
| Fc1cccc(Cl)c1CNc1ccc(N2CCCC2)cc1 | > 80 µM (inactive) |
| Cc1cc(C(=O)O)ccc1-n1c(C)cc(C=C2C(=O)c3ccccc3C2=O)c1C | > 80 µM (inactive) |
| Cc1ccc(-c2nn(C)c(=O)c3ccccc23)cc1CNC(=O)/C=C/c1ccccc1 | 68.6 µM |
